We go through 5 compounds from paper PMC2625337, “Flexible modulation of agonist efficacy at the human A3 adenosine receptor by the imidazoquinoline allosteric enhancer LUF6000” (BMC Pharmacology, 2008).

Common to all, as to assay type: biochemical
In test [1] the target is T1, human A1 adenosine receptor (A1 AR) (Homo sapiens, UniProt P30542).
T1 construct: gene ADORA1; full-length receptor stably expressed in CHO cells, membrane preparation
T1 sequence (P30542 1-326): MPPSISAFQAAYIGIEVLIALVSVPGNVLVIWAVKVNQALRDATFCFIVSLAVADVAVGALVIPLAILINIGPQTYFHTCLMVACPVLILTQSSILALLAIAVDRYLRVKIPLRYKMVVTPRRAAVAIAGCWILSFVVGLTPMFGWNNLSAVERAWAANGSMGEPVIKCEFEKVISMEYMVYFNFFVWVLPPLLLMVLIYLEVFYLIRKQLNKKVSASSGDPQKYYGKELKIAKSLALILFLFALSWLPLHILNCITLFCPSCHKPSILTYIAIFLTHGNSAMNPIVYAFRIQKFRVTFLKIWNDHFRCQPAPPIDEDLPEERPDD
The note with it: high-efficacy agonist.

Test [2] has as its target T2, human A3 adenosine receptor (A3 AR) (Homo sapiens, UniProt P0DMS8).
T2 construct: gene ADORA3; full-length receptor stably expressed in CHO cells, membrane preparation
T2 sequence (P0DMS8 1-318): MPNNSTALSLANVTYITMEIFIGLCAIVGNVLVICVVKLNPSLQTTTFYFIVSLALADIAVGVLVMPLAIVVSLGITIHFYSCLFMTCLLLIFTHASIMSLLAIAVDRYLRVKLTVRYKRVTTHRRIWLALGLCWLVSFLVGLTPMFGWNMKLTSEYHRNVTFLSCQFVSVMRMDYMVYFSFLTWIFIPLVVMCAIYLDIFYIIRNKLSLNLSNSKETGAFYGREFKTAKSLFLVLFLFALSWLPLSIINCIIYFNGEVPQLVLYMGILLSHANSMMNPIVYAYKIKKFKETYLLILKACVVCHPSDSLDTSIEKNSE
Kind of test: […]GTPgammaS binding, CHO membranes.

Test [3] concerns the target T2, human A3 adenosine receptor (A3 AR). Briefly: […]GTPgammaS binding, CHO membranes. The note with it: alone, no LUF6000; antagonist.
The target is the same in test [4]. Kind of test: […]GTPgammaS binding, CHO membranes. The note with it: agonist alone, no LUF6000.

Take `OC[C@H]1O[C@@H](n2cnc3c(NC4CCCC4)nc(Cl)nc32)[C@H](O)[C@@H]1O` [CCPA, 2-chloro-N^6-cyclopentyladenosine]: in test [1], the “[35S]GTPgammaS binding, CHO membranes” value was “high-efficacy agonists CPA and CCPA or a low efficacy agonist MRS541 to activate the A1”.

For `CNC(=O)[C@H]1O[C@@H](n2cnc3c(NCc4cccc(I)c4)ncnc32)[C@H](O)[C@@H]1O` [IB-MECA], the “[35S]GTPgammaS binding, CHO membranes” value in test [2] (agonist) is reported as “IB-MECA was almost as efficacious as Cl-IB-MECA”. With `OC[C@H]1O[C@@H](n2cnc3c(NCc4cccc(I)c4)nc(Cl)nc32)[C@H](O)[C@@H]1O` [MRS542, 2-chloro-N^6-(3-iodobenzyl)adenosine], the “Emax (%)” value in test [3] is listed as 5.6 ± 2.5%. For `Clc1ccc(Nc2nc3ccccc3c3nc(C4CCCCC4)[nH]c23)cc1Cl` [LUF6000, N-(3,4-dichloro-phenyl)-2-cyclohexyl-1H-imidazo [4,5-c]quinolin-4-amine], the “[35S]GTPgammaS binding, CHO membranes” value in test [2] (allosteric enhancer, tested at 0.1-10 µM with agonists) was “LUF6000 showed a flexible modulatory effect of efficacy”. Turning to `O=c1[nH]cnc2c1ncn2[C@@H]1O[C@H](CO)[C@@H](O)[C@H]1O` [inosine], in test [4], the “Emax (% of NECA)” value is less than 10%.
